Assay results reported in patent US10626178B2, “Treatment of mood and stress related disorders” (priority 2013, dated 2020).

Assays:
CUS-exposed mice [1] = assay: Porsolt forced swim test; type: in vivo
Protocol: Subjects were exposed to chronic unpredictable stress (CUS), consisting of daily exposure to two stressors in a random order over a 5-week period. […] The list of CUS stressors included: cage shaking for 1 h with loud music and lights, on, lights on during the entire night (12 h), lights-off for 3 h during the daylight phase, flashing (stroboscopic) light for 6 h, placement in 4° C. cold room for 1 h, mild restraint (in small cages) for 2 h, 45° cage tilt for 14 h, wet cage for 14 h, exposure to fox, ferret, bobcat, or coyote smell for 2 h, noise in the room for 3 h, and water deprivation for 12 h during the dark period.
Mice were placed in 20 cm diameter glass cylinder filled to 10 cm with 21° C. water and their behavior was analyzed for five min. The time spent in immobility, defined as the absence of all movement except motions required to maintain the animal's head above the water, and the latency to first immobility episode were recorded using an in-house computerized software.

CUS-exposed mice [2] = assay: Sucrose preference test; type: in vivo
Protocol: (§1) Subjects were exposed to chronic unpredictable stress (CUS), consisting of daily exposure to two stressors in a random order over a 5-week period. The effect of a shorter period of unpredictable stress was examined by exposing mice to various combinations of 2-3 of the same stressors over a period of 2 days. The list of CUS stressors included: cage shaking for 1 h with loud music and lights, on, lights on during the entire night (12 h), lights-off for 3 h during the daylight phase, flashing (stroboscopic) light for 6 h, placement in 4° C. cold room for 1 h, mild restraint (in small cages) for 2 h, 45° cage tilt for 14 h, wet cage for 14 h, exposure to fox, ferret, bobcat, or coyote smell for 2 h, noise in the room for 3 h, and water deprivation for 12 h during the dark period. Following baseline adaptation to sucrose for several days, animals were presented in the beginning of the dark circadian phase with two graduated drinking tubes, one containing tap water and the other 2% sucrose solution for 3 hr. Sucrose preference was calculated as the percent of sucrose consumption out of the total drinking volume.

CUS-exposed mice [3] = assay: CUS model, overall depressive-like behavior; type: in vivo
Protocol: as §1, with “period.” for “period. Following baseline adaptation to sucrose for several days, animals were presented in the beginning of the dark circadian phase with two graduated drinking tubes, one containing tap water and the other 2% sucrose solution for 3 hr. Sucrose preference was calculated as the percent of sucrose consumption out of the total drinking volume.”

CUS-exposed mice [4] = assay: Social exploration test; type: in vivo; details: for social exploration time: 5-weeks CUS-exposed mice treated for 2 additional weeks of CUS
Protocol: Subjects were exposed to chronic unpredictable stress (CUS), consisting of daily exposure to two stressors in a random order over a 5-week period. The effect of a shorter period of unpredictable stress was examined by exposing mice to various combinations of 2-3 of the same stressors over a period of 2 days. The list of CUS stressors included: cage shaking for 1 h with loud music and lights, on, lights on during the entire night (12 h), lights-off for 3 h during the daylight phase, flashing (stroboscopic) light for 6 h, placement in 4° C. cold room for 1 h, mild restraint (in small cages) for 2 h, 45° cage tilt for 14 h, wet cage for 14 h, exposure to fox, ferret, bobcat, or coyote smell for 2 h, noise in the room for 3 h, and water deprivation for 12 h during the dark period. Each subject was placed in an observation cage and allowed to habituate to the cage for 15 min, following which a male juvenile was placed in the cage. Social exploration, defined as the time of near contact between the nose of the subject and the juvenile conspecific, was then recorded for three minutes, using computerized in-house software.

DG microglia = DG microglia number and morphology after unpredictable stress (US/CUS); type: in vivo, mice
Protocol: as §1, with “period.” for “period. Following baseline adaptation to sucrose for several days, animals were presented in the beginning of the dark circadian phase with two graduated drinking tubes, one containing tap water and the other 2% sucrose solution for 3 hr. Sucrose preference was calculated as the percent of sucrose consumption out of the total drinking volume.”
Animals were perfused trans-cardially with cold PBS followed by 4% paraformaldehyde in 0.1 M PBS, and the brains were quickly removed and placed in 4% paraformaldehyde. After 24 h the brains were placed in 30% sucrose solution in PBS and then frozen in OCT.
In some experiments microglia were visualized using an antibody to the microglia activation marker ionized calcium-binding adapter molecule-1 (Iba-1). Brain sections were first fixed in 2% paraformaldehyde, and after 3 PBS washes they were incubated over-night in 3% normal goat serum in 5% BSA with the primary antibody (rabbit anti Iba-1 1:220, Wako, Japan) at 4° C. Sections were then incubated with the secondary antibody (goat anti rabbit, 1:200; Invitrogen) for 1 hour at RT and counter-stained with DAPI (Sigma, Israel).
(§2) Images were captured using Nikon Eclipse fluorescent microscope and CI Nikon confocal microscope and camera. The number of GFP-labeled microglia (and in some studies the number of BrdU-labeled microglia and other cells), as well and the microglial soma area were automatically measured at ×10 magnification in a defined area exclusively containing the entire Dentate Gyrus or prelimbic cortex, for each slide, using Nikon Imaging Elements Software (NIS-Elements). Microglia processes length was measured by capturing images at 40× magnification and by manual tracing of the processes of 4 randomly selected cells/section their processes using the NIS Elements software.

DG cells = assay: BrdU labeling of DG cells (neurogenesis / proliferation); type: in vivo, mice; details: M-CSF 100 μg/kg i.p. daily for 5 days
Protocol: BrdU immunofluorescent staining was performed on 8 μm frozen brain sections, fixated in 50% formamide/2×SCC (0.3M NaCl and 0.03 M sodium citrate) for 2 hours at 65° C. After one wash with 2×SCC, sections were incubated in 2 N HCl for 30 minutes at 37° C. Sections were then rinsed in 0.1 M boric acid at pH 8.5 and washed 3 times in PBS, following which they were incubated in 3% normal goat serum in 1% BSA/0.1% Triton for 30 min at room temperature and then incubated with rat monoclonal anti-BrdU antibody (1:200, AbD serotec) for 48 hours at 4° C. […]
as §2

[5] = 5-weeks CUS-exposed mice treated for 2 additional weeks of CUS
[6] = 5-weeks CUS, drug beginning two days before and throughout CUS
[7] = 5-weeks CUS-exposed mice treated for 2 additional weeks of CUS (imipramine, minocycline in drinking water; GM-CSF i.p. 3 time/week)
[8] = CUS-exposed mice, M-CSF 100 μg/kg i.p. daily for 5 days

CN(C)CCCN1c2ccccc2CCc2ccccc21 [imipramine, reference compound]
floating time (CUS-exposed mice [1]; [5]): showed no difference from non-stressed controls
sucrose preference (CUS-exposed mice [2]; [6]): prevented the CUS-induced reductions in sucrose preference
effect on established CUS-induced depressive-like behavior (CUS-exposed mice [3]; administration to mice with established CUS-induced depressive-like behavior): produced minimal beneficial effects
social exploration time (CUS-exposed mice [4]): further reductions were evident
social exploration (CUS-exposed mice [4]; [6]): prevented the CUS-induced reductions
DG microglia number (DG microglia; [7]): no differences from any of the groups
hippocampal microglia number (DG microglia; [6]): blocked the CUS-induced decline in hippocampal microglia number
microglia processes length (DG microglia; [6]): blocked the CUS-induced decline
microglia soma size (DG microglia; [6]): blocked the CUS-induced decline
number of hippocampal (DG) microglia (DG microglia; 2 days of US exposure, drug via drinking water beginning 2 days before US initiation (minocycline 40, imipramine 20 mg/kg/day)): completely reversed the increase in hippocampal microglia

GM-CSF
floating time (CUS-exposed mice [1]; [5]): showed no difference from non-stressed controls
sucrose preference (CUS-exposed mice [2]; [5]): completely reversed the suppressive effects of CUS on sucrose preference
social exploration time (CUS-exposed mice [4]): induced an elevation in the social exploration time
DG microglia number (DG microglia; [7]): significantly greater number of microglia as compared with the control CUS-exposed mice

IL-1β: microglia-stimulating cytokine interleukin-1β, given intra-hippocampally
microglia number and morphology (DG microglia; acute intra-hippocampal administration in WT mice): mimicked the effects of short-term US on microglia number and morphology

B1: M-CSF: Macrophage colony-stimulating factor, homodimer glycoprotein; microglia activator (protein, UniProt P09603 33-554, looked up)
Macrophage colony-stimulating …: EEVSEYCSHMIGSGHLQSLQRLIDSQMETSCQITFEFVDQEQLKDPVCYLKKAFLLVQDIMEDTMRFRDNTPNAIAIVQLQELSLRLKSCFTKDYEEHDKACVRTFYETPLQLLEKVKNVFNETKNLLDKDWNIFSKNCNNSFAECSSQDVVTKPDCNCLYPKAIPSSDPASVSPHQPLAPSMAPVAGLTWEDSEGTEGSSLLPGEQPLHTVDPGSAKQRPPRSTCQSFEPPETPVVKDSTIGGSPQPRPSVGAFNPGMEDILDSAMGTNWVPEEASGEASEIPVPQGTELSPSRPGGGSMQTEPARPSNFLSASSPLPASAKGQQPADVTGTALPRVGPVRPTGQDWNHTPQKTDHPSALLRDPPEPGSPRISSLRPQGLSNPSTLSAQPQLSRSHSSGSVLPLGELEGRRSTRDRRSPAEPEGGPASEGAARPLPRFNSVPLTDTGHERQSEGSFSPQLQESVFHLLVPSVILVLLAVGGLLFYRWRRRSHQEPQRADSPLEQPEGSPLTQDDRQVELPV
generation of new (BrdU-labeled) DG cells that are not microglia (DG cells; CUS-exposed mice): marked increase in the generation of new (BrdU-labeled) DG cells that are not microglia
microglia proliferation (GFP microglia co-labeled for BrdU) (DG cells): overall increase in microglia proliferation
floating time (CUS-exposed mice [1]; [8]): reversed
latency to first float (CUS-exposed mice [1]; [8]): did not reach statistical significance
sucrose preference (CUS-exposed mice [2]; [8]): completely reversed the suppressive effects of CUS on sucrose preference
depressive-like behavioral symptoms (CUS-exposed mice [3]; CUS-exposed mice): completely reversed the depressive symptoms after a few days of treatment
depressive symptoms (CUS-exposed mice [3]; non-stressed mice): did not cause depressive symptoms in non-stressed mice
social exploration (CUS-exposed mice [4]; [8]): completely reversed the suppressive effects of CUS
DG microglia number (DG microglia; control and CUS-exposed mice, M-CSF 100 μg/kg i.p. daily for 5 days): overall increase in DG microglia number, completely normalizing microglia number in CUS-exposed mice
